Data from ChEMBL document CHEMBL4507257, “Data for DCP probe ABT-100” (2021).

What was measured:
[1] = target: Phosphatidylinositol 3-kinase catalytic subunit type 3 (Homo sapiens) (UniProt Q8NEB9); details: Compound concentration 1000.0 nM
[2] = target: Serine/threonine-protein kinase pim-2 (Homo sapiens) (UniProt Q9P1W9); details: Compound concentration 1000.0 nM
[3] = target: Serine/threonine-protein kinase Nek1 (Homo sapiens) (UniProt Q96PY6); details: Compound concentration 1000.0 nM
[4] = target: Mitogen-activated protein kinase kinase kinase 15 (Homo sapiens) (UniProt Q6ZN16); details: Compound concentration 1000.0 nM
[5] = target: Calcium/calmodulin-dependent protein kinase type 1 (Homo sapiens) (UniProt Q14012); details: Compound concentration 1000.0 nM
[6] = target: Insulin receptor (Homo sapiens) (UniProt P06213); details: Compound concentration 1000.0 nM
[7] = target: Tyrosine-protein kinase JAK2 (Homo sapiens) (UniProt O60674); details: Compound concentration 1000.0 nM
[8] = target: Delta-type opioid receptor (Homo sapiens) (UniProt P41143); details: Compound concentration 10.0 uM
[9] = target: Tyrosine-protein kinase ABL2 (Homo sapiens) (UniProt P42684); details: Compound concentration 1000.0 nM
[10] = target: Phosphatidylinositol 4,5-bisphosphate 3-kinase catalytic subunit gamma isoform (Homo sapiens) (UniProt P48736); details: Compound concentration 1000.0 nM
[11] = target: Dual specificity tyrosine-phosphorylation-regulated kinase 2 (Homo sapiens) (UniProt Q92630); details: Compound concentration 1000.0 nM
[12] = target: Cyclin-dependent kinase 16 (Homo sapiens) (UniProt Q00536); details: Compound concentration 1000.0 nM
[13] = target: Cyclin-dependent kinase 17 (Homo sapiens) (UniProt Q00537); details: Compound concentration 1000.0 nM
[14] = target: Serine/threonine-protein kinase WNK4 (Homo sapiens) (UniProt Q96J92); details: Compound concentration 1000.0 nM
[15] = target: Protein kinase C delta type (Homo sapiens) (UniProt Q05655); details: Compound concentration 1000.0 nM
[16] = target: cGMP-dependent protein kinase 1 (Homo sapiens) (UniProt Q13976); details: Compound concentration 1000.0 nM
[17] = target: Serine/threonine-protein kinase tousled-like 1 (Homo sapiens) (UniProt Q9UKI8); details: Compound concentration 1000.0 nM
[18] = target: Calcium/calmodulin-dependent protein kinase kinase 1 (Homo sapiens) (UniProt Q8N5S9); details: Compound concentration 1000.0 nM
[19] = target: Myotonin-protein kinase (Homo sapiens) (UniProt Q09013); details: Compound concentration 1000.0 nM
[20] = target: Ephrin type-A receptor 8 (Homo sapiens) (UniProt P29322); details: Compound concentration 1000.0 nM
[21] = target: STE20-like serine/threonine-protein kinase (Homo sapiens) (UniProt Q9H2G2); details: Compound concentration 1000.0 nM
[22] = target: Tyrosine-protein kinase JAK1 (Homo sapiens) (UniProt P23458); details: Compound concentration 1000.0 nM
[23] = target: Receptor-type tyrosine-protein kinase FLT3 (Homo sapiens) (UniProt P36888); details: Compound concentration 1000.0 nM
[24] = target: Serine/threonine-protein kinase tousled-like 2 (Homo sapiens) (UniProt Q86UE8); details: Compound concentration 1000.0 nM
[25] = target: Rhodopsin kinase GRK7 (Homo sapiens) (UniProt Q8WTQ7); details: Compound concentration 1000.0 nM
[26] = target: Receptor-interacting serine/threonine-protein kinase 4 (Homo sapiens) (UniProt P57078); details: Compound concentration 1000.0 nM
[27] = target: T1, 5-hydroxytryptamine receptor 3A (Homo sapiens) (UniProt P46098); details: Compound concentration 10.0 uM
T1 sequence (whole entry): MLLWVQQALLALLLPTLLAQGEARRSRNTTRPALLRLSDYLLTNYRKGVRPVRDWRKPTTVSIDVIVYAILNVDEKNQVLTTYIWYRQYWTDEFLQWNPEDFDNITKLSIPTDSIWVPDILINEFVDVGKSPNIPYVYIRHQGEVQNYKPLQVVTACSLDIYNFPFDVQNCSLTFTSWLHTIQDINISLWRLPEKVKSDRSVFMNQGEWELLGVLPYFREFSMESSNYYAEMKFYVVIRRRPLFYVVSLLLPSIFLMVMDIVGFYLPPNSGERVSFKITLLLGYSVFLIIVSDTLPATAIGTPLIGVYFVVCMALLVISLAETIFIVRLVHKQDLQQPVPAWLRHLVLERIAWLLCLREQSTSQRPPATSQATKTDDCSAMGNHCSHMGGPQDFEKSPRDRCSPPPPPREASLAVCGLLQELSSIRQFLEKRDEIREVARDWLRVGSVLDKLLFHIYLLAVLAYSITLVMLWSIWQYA

[28] = system: Mast/stem cell growth factor receptor Kit (Homo sapiens), P10721 [D816V]; details: Compound concentration 1000.0 nM
[29] = target: Platelet-derived growth factor receptor alpha (Homo sapiens) (UniProt P16234); details: Compound concentration 1000.0 nM
[30] = system: Receptor-type tyrosine-protein kinase FLT3 (Homo sapiens), P36888 [R834Q]; details: Compound concentration 1000.0 nM
[31] = target: Fibroblast growth factor receptor 4 (Homo sapiens) (UniProt P22455); details: Compound concentration 1000.0 nM
[32] = target: Atypical kinase COQ8B, mitochondrial (Homo sapiens) (UniProt Q96D53); details: Compound concentration 1000.0 nM
[33] = target: Ankyrin repeat and protein kinase domain-containing protein 1 (Homo sapiens) (UniProt Q8NFD2); details: Compound concentration 1000.0 nM
[34] = target: Cyclin-dependent kinase 4 (Homo sapiens) (UniProt P11802); details: Compound concentration 1000.0 nM
[35] = system: Serine/threonine-protein kinase B-raf (Homo sapiens), P15056 [V600E]; details: Compound concentration 1000.0 nM
[36] = system: Tyrosine-protein kinase ABL1 (Homo sapiens), P00519 [T315I]; details: Compound concentration 1000.0 nM
[37] = target: Phosphatidylinositol 3-kinase C2 domain-containing subunit gamma (Homo sapiens) (UniProt O75747); details: Compound concentration 1000.0 nM
[38] = target: MAP/microtubule affinity-regulating kinase 4 (Homo sapiens) (UniProt Q96L34); details: Compound concentration 1000.0 nM
[39] = target: Tyrosine-protein kinase SYK (Homo sapiens) (UniProt P43405); details: Compound concentration 1000.0 nM

Mitogen-activated protein kinase kinase kinase 15 (Homo sapiens), sequence (Q6ZN16 whole entry): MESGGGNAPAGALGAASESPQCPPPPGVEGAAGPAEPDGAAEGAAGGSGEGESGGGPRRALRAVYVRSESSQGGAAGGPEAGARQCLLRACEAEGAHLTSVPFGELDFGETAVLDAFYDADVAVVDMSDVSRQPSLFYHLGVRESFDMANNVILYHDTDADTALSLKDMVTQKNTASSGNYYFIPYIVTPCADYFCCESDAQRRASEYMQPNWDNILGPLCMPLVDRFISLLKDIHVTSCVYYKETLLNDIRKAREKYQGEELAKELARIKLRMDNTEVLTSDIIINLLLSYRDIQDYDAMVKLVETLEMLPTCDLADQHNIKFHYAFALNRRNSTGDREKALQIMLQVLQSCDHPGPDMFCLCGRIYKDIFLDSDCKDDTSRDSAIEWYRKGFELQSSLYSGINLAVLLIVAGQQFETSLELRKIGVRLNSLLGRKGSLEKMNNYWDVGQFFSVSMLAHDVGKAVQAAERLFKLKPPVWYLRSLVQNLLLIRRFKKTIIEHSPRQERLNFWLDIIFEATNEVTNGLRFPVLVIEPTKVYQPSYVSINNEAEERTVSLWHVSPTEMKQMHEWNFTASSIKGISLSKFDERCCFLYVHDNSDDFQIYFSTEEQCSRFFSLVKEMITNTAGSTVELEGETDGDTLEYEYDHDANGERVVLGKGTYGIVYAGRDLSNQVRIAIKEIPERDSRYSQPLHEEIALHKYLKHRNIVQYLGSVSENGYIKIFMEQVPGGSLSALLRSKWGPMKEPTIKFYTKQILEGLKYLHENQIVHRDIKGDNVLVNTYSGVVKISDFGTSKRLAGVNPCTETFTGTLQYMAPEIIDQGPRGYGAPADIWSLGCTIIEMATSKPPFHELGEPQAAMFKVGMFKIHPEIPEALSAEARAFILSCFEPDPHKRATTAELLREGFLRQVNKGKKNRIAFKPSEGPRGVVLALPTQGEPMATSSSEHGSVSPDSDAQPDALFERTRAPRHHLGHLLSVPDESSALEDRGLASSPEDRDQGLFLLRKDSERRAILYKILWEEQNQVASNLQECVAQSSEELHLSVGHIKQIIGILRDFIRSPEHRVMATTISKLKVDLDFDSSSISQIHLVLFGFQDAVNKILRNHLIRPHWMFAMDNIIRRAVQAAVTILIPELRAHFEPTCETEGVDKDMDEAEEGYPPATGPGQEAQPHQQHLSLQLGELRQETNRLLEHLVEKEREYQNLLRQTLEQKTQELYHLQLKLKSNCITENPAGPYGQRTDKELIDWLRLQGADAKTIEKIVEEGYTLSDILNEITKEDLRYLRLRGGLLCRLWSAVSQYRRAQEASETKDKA
Phosphatidylinositol 3-kinase C2 domain-containing subunit gamma (Homo sapiens), sequence (O75747 whole entry, the tested form may be a part): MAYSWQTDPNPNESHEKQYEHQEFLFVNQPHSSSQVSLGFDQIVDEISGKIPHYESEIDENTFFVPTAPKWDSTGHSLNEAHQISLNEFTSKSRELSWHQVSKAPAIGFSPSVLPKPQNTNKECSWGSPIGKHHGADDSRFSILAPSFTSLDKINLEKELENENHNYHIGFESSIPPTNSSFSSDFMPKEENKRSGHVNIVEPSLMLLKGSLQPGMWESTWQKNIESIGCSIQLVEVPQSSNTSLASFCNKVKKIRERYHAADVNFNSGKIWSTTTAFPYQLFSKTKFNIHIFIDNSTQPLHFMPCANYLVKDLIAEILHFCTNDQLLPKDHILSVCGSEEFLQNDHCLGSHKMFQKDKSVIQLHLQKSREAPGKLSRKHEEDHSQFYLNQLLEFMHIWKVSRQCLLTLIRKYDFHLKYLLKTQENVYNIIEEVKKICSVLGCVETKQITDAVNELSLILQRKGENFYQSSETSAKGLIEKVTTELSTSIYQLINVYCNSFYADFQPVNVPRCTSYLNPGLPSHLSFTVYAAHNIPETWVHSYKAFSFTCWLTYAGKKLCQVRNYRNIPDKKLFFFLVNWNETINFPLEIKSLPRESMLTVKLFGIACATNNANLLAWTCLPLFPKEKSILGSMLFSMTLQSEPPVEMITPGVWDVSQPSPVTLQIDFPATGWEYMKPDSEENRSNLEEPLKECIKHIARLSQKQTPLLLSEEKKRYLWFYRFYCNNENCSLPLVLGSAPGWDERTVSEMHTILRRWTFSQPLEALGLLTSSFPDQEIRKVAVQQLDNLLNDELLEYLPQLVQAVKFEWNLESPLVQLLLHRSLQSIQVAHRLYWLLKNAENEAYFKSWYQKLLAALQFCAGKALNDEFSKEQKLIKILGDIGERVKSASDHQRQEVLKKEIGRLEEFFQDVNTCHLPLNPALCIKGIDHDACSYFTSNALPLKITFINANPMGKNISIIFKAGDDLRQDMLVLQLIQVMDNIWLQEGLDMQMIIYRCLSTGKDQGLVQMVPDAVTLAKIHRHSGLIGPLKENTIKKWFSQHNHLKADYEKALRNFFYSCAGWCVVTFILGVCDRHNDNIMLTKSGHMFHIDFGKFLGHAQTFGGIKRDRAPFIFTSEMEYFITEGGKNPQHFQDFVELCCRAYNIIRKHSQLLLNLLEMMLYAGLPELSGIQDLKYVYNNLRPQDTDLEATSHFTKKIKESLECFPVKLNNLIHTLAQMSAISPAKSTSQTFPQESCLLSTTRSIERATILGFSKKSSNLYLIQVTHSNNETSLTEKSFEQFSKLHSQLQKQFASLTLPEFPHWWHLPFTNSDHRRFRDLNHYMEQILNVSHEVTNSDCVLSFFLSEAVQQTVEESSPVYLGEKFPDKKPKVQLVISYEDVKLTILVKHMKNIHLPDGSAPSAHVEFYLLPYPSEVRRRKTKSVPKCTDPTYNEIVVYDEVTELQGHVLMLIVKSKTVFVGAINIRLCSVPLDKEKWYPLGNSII
Cyclin-dependent kinase 17 (Homo sapiens), sequence (Q00537 whole entry, looked up): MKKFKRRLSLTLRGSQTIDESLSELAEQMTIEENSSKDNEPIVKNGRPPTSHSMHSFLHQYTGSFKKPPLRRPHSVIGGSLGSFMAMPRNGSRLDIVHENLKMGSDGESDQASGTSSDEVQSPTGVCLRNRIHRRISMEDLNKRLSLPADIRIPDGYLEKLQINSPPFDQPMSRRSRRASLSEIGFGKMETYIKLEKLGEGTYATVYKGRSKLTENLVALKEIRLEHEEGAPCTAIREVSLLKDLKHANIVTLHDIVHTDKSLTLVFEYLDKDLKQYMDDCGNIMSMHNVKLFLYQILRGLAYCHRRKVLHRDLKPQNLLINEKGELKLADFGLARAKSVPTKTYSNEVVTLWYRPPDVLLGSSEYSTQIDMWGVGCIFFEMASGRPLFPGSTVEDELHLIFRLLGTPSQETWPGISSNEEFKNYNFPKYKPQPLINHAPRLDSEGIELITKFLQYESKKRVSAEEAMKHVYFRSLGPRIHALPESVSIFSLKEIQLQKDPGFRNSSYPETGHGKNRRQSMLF
Phosphatidylinositol 4,5-bisphosphate 3-kinase catalytic subunit gamma isoform (Homo sapiens), sequence (P48736 whole entry, looked up, canonical isoform): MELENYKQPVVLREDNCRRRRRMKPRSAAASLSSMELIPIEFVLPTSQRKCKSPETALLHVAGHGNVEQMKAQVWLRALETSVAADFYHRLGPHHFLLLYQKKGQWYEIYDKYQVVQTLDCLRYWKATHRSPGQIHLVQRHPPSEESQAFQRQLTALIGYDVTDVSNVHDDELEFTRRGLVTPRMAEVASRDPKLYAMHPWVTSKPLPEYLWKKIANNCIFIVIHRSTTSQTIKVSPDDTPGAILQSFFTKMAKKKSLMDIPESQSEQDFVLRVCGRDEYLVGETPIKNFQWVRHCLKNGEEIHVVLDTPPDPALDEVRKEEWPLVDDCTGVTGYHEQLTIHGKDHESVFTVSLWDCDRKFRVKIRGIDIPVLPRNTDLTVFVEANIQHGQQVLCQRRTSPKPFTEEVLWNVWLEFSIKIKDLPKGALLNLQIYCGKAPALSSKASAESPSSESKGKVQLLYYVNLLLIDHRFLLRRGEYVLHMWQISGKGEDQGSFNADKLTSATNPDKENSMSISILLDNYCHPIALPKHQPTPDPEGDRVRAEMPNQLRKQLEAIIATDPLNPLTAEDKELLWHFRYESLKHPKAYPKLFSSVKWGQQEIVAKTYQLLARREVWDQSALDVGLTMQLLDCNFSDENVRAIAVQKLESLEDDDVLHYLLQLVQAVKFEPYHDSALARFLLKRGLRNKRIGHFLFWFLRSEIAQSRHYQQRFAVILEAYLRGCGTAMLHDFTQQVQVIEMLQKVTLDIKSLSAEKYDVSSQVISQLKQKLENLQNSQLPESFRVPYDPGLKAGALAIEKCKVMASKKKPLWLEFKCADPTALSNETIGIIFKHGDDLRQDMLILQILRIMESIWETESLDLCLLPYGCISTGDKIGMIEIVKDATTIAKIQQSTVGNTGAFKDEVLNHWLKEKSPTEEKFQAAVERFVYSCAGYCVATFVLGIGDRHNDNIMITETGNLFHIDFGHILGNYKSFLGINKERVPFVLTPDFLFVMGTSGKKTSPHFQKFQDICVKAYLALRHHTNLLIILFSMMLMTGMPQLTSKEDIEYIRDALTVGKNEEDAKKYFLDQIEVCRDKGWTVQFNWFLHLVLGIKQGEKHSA
Cyclin-dependent kinase 16 (Homo sapiens), sequence (Q00536 whole entry): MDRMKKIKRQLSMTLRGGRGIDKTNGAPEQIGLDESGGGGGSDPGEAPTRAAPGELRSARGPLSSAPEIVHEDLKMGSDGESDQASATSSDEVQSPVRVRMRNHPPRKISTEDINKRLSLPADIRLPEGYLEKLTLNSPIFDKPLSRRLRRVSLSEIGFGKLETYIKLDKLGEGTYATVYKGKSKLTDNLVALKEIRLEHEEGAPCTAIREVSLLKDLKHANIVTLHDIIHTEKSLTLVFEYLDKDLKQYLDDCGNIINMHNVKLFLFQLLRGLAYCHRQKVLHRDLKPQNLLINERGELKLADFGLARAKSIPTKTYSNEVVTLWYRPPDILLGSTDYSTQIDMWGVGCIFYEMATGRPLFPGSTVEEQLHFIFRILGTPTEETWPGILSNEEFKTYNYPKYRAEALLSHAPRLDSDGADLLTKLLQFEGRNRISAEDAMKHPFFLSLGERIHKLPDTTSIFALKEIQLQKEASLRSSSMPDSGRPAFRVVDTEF

| Compound | residual activity [1] | residual activity [2] | residual activity [3] | residual activity [4] | residual activity [5] | residual activity [6] | residual activity [7] | inhibition [8] | residual activity [9] | residual activity [10] | residual activity [11] | residual activity [12] | residual activity [13] | residual activity [14] | residual activity [15] | residual activity [16] | residual activity [17] | residual activity [18] | residual activity [19] | residual activity [20] | other results |
| --- | --- | --- | --- | --- | --- | --- | --- | --- | --- | --- | --- | --- | --- | --- | --- | --- | --- | --- | --- | --- | --- |
| Cn1cncc1[C@@](O)(COc1ccc(C#N)cc1-c1ccc(OC(F)(F)F)cc1)c1ccc(C#N)cc1 [A-108] | 100% | 100% | 100% | 83% | 100% | 84% | 65% | 2.4% | 100% | 69% | 89% | 85% | 95% | 85% | 100% | 94% | 100% | 100% | 94% | 100% | residual activity [21]: 100%; residual activity [22]: 100%; residual activity [23]: 100%; residual activity [24]: 97%; residual activity [25]: 81%; residual activity [26]: 94%; inhibition [27]: -0.62%; residual activity [28]: 100%; residual activity [29]: 100%; residual activity [30]: 100%; residual activity [31]: 100%; residual activity [32]: 100%; residual activity [33]: 100%; residual activity [34]: 93%; residual activity [35]: 100%; residual activity [36]: 6.1%; residual activity [37]: 61%; residual activity [38]: 100%; residual activity [39]: 100% |
| Cn1cncc1[C@](O)(COc1ccc(C#N)cc1-c1ccc(OC(F)(F)F)cc1)c1ccc(C#N)cc1 [ABT-100] | 91% | 84% | 80% | 90% | 99% | 100% | 91% | -0.182% | 83% | 100% | 52% | 100% | 100% | 100% | 66% | 91% | 100% | 77% | 98% | 72% | residual activity [21]: 90%; residual activity [22]: 59%; residual activity [23]: 100%; residual activity [24]: 100%; residual activity [25]: 100%; residual activity [26]: 100%; inhibition [27]: 17.6%; residual activity [28]: 85%; residual activity [29]: 100%; residual activity [30]: 98%; residual activity [31]: 100%; residual activity [32]: 72%; residual activity [33]: 100%; residual activity [34]: 100%; residual activity [35]: 82%; residual activity [36]: 84%; residual activity [37]: 81%; residual activity [38]: 56%; residual activity [39]: 95% |
